# Like-named read-outs stand apart in the source and are kept apart here.
# Biological target: T1, human M2 receptor (Homo sapiens, UniProt P08172)
# T1 sequence (P08172 1-466): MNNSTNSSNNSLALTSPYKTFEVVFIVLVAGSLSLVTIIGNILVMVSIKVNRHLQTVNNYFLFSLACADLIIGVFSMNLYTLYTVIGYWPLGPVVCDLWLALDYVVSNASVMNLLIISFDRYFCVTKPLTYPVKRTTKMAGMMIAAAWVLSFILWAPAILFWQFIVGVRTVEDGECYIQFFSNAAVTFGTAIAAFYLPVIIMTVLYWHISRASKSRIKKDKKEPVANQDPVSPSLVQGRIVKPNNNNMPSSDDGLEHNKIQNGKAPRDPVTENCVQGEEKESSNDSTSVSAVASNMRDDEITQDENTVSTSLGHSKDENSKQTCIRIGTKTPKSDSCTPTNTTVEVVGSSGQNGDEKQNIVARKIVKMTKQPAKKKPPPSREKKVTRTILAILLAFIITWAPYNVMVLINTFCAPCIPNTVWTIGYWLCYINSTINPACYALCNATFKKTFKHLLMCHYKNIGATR
# Conditions: for EC50: Receptor activity EC50, allosteric potency at EC20 acetylcholine, in some cases mean of two or more determinations; for Efficiency: boosting of the acetylcholine effect at EC20 acetylcholine concentration
# [1] = read-out: Efficiency, boosting of the acetylcholine effect at EC20 acetylcholine concentration, M2-GIRK1/4 reporter cells
EC50 (M2-GIRK1/4 reporter cells) [nM],Emax [1] [%],Efficiency (M2-GIRK1/4 reporter cells) [%],Structure (SMILES),Emax (read-out: Efficiency) [%]
16,99.5,–,"CC(C)C(NC(=O)c1cn(-c2c(F)cc(F)cc2F)c2nc(N3CCNC3=O)ccc2c1=O)C(F)(F)F (racemic) [Example 536, 4-Oxo-7-(2-oxoimidazolidin-1-yl)-N-[1,1,1-trifluoro-3-methylbutan-2-yl]-1-(2,4,6-trifluorophenyl)-1,4-dihydro-1,8-naphthyridine-3-carboxamide]",–
9,90,–,"CC(NC(=O)c1cn(-c2c(F)cc(F)cc2F)c2nc(N3CCNC3=O)ccc2c1=O)C(F)(F)C(F)(F)F (racemic) [Example 540, 4-Oxo-7-(2-oxoimidazolidin-1-yl)-N-[3,3,4,4,4-pentafluorobutan-2-yl]-1-(2,4,6-trifluorophenyl)-1,4-dihydro-1,8-naphthyridine-3-carboxamide]",–
–,–,–,"CC(NC(=O)c1cn(-c2c(F)cc(F)cc2F)c2nc(N3C[C@@H](O)[C@H](O)C3)ccc2c1=O)C(F)(F)C(F)(F)F (mixture of isomers) [Example 549, 7-[(3R,4R)-3,4-Dihydroxypyrrolidin-1-yl]-4-oxo-N-[3,3,4,4,4-pentafluorobutan-2-yl]-1-(2,4,6-trifluorophenyl)-1,4-dihydro-1,8-naphthyridine-3-carboxamide]",100
14,96,–,"CC(C)C(NC(=O)c1cn(-c2c(F)cc(F)cc2F)c2nc(N3C[C@@H](O)[C@H](O)C3)ccc2c1=O)C(F)(F)F (mixture of isomers) [Example 552, 7-[(3R,4R)-3,4-Dihydroxypyrrolidin-1-yl]-4-oxo-N-[1,1,1-trifluoro-3-methylbutan-2-yl]-1-(2,4,6-trifluorophenyl)-1,4-dihydro-1,8-naphthyridine-3-carboxamide]",–
10,100,–,"CCC(NC(=O)c1cn(-c2ccc(F)cc2F)c2nc(N3C[C@@H](O)CC3=O)ccc2c1=O)C(F)(F)C(F)(F)F (mixture of isomers) [Example 556, 1-(2,4-Difluorophenyl)-7-[(4S)-4-hydroxy-2-oxopyrrolidin-1-yl]-4-oxo-N-[1,1,1,2,2-pentafluoropentan-3-yl]-1,4-dihydro-1,8-naphthyridine-3-carboxamide]",–
17,100,–,"O=C(NC(c1ccccc1Cl)C(F)(F)F)c1cn(-c2c(F)cc(F)cc2F)c2nc(N3C[C@@H](O)[C@H](O)C3)ccc2c1=O (mixture of isomers) [Example 560, N-[1-(2-Chlorophenyl)-2,2,2-trifluoroethyl]-7-[(3R,4R)-3,4-dihydroxypyrrolidin-1-yl]-4-oxo-1-(2,4,6-trifluorophenyl)-1,4-dihydro-1,8-naphthyridine-3-carboxamide]",–
20,100,–,"O=C(NC(c1ccccc1Cl)C(F)(F)F)c1cn(-c2c(F)cc(F)cc2F)c2nc(N3CCNC3=O)ccc2c1=O (racemic) [Example 563, N-[1-(2-Chlorophenyl)-2,2,2-trifluoroethyl]-4-oxo-7-(2-oxoimidazolidin-1-yl)-1-(2,4,6-trifluorophenyl)-1,4-dihydro-1,8-naphthyridine-3-carboxamide]",–
–,–,99.5,"O=C(NC(c1ccccc1Cl)C(F)(F)F)c1cn(-c2c(F)cc(F)cc2F)c2nc(N3CCNC3=O)ccc2c1=O (racemic) [Example 565, N-[1-(2-Chlorophenyl)-2,2,2-trifluoroethyl]-4-oxo-7-(2-oxoimidazolidin-1-yl)-1-(2,4,6-trifluorophenyl)-1,4-dihydro-1,8-naphthyridine-3-carboxamide]",–
49,100,–,"CC(C)(CC(F)(F)F)NC(=O)c1cn(-c2c(F)cc(F)cc2F)c2nc(N3CC(O)C4(CC4)C3)ccc2c1=O (racemic) [Example 569, 7-[7-Hydroxy-5-azaspiro[2.4]hept-5-yl]-4-oxo-N-(4,4,4-trifluoro-2-methylbutan-2-yl)-1-(2,4,6-trifluorophenyl)-1,4-dihydro-1,8-naphthyridine-3-carboxamide]",–
13,99.5,–,"CCC(COC(F)(F)F)NC(=O)c1cn(-c2c(F)cc(F)cc2F)c2nc(N3C[C@@H](O)[C@H](O)C3)ccc2c1=O (mixture of isomers) [Example 576, 7-[(3R,4R)-3,4-Dihydroxypyrrolidin-1-yl]-4-oxo-N-[1-(trifluoromethoxy)butan-2-yl]-1-(2,4,6-trifluorophenyl)-1,4-dihydro-1,8-naphthyridine-3-carboxamide]",–
14,100,–,"COC1CN(c2ccc3c(=O)c(C(=O)N[C@@H](C4CC4)C(F)(F)F)cn(-c4c(F)cc(F)cc4F)c3n2)CC1O (mixture of isomers) [Example 582, N-[(1 S)-1-Cyclopropyl-2,2,2-trifluoroethyl]-7-[trans-3-hydroxy-4-methoxypyrrolidin-1-yl]-4-oxo-1-(2,4,6-trifluorophenyl)-1,4-dihydro-1,8-naphthyridine-3-carboxamide]",–
15,100,–,"O=C(NC(CC(F)(F)F)C(F)(F)F)c1cn(-c2c(F)cc(F)cc2F)c2nc(N3CCNC3=O)ccc2c1=O (racemic) [Example 586, N-[1,1,1,4,4,4-Hexafluorobutan-2-yl]-4-oxo-7-(2-oxoimidazolidin-1-yl)-1-(2,4,6-trifluorophenyl)-1,4-dihydro-1,8-naphthyridine-3-carboxamide]",–
14,–,93.5,"O=C(NC(CC(F)(F)F)C(F)(F)F)c1cn(-c2c(F)cc(F)cc2F)c2nc(N3CCNC3=O)ccc2c1=O (racemic) [Example 587, N-[1,1,1,4,4,4-Hexafluorobutan-2-yl]-4-oxo-7-(2-oxoimidazolidin-1-yl)-1-(2,4,6-trifluorophenyl)-1,4-dihydro-1,8-naphthyridine-3-carboxamide]",–
9,–,100.0,"O=C(NC(CC(F)(F)F)C(F)(F)F)c1cn(-c2c(F)cc(F)cc2F)c2nc(N3CCNC3=O)ccc2c1=O (racemic) [Example 588, N-[1,1,1,4,4,4-Hexafluorobutan-2-yl]-4-oxo-7-(2-oxoimidazolidin-1-yl)-1-(2,4,6-trifluorophenyl)-1,4-dihydro-1,8-naphthyridine-3-carboxamide]",–
21,95.5,–,"O=C(Nc1c(Cl)cccc1Cl)c1cn(-c2ccc(F)cc2F)c2nc(N3CC4CC4(O)C3)ccc2c1=O (racemic) [Example 597, N-(2,6-Dichlorophenyl)-1-(2,4-difluorophenyl)-7-[1-hydroxy-3-azabicyclo[3.1.0]hex-3-yl]-4-oxo-1,4-dihydro-1,8-naphthyridine-3-carboxamide]",–
28,96.9,–,"O=C(N[C@@H](C1CC1)C(F)(F)F)c1cn(-c2c(F)cc(F)cc2F)c2nc(N3CC(O)C4(CC4)C3)ccc2c1=O (mixture of isomers) [Example 600, N-[(1S)-1-Cyclopropyl-2,2,2-trifluoroethyl]-7-[7-hydroxy-5-azaspiro[2.4]hept-5-yl]-4-oxo-1-(2,4,6-trifluorophenyl)-1,4-dihydro-1,8-naphthyridine-3-carboxamide]",–
27,98,–,"O=C(NC(CC(F)(F)F)C(F)(F)F)c1cn(-c2c(F)cc(F)cc2F)c2nc(N3C[C@@H](O)CC3=O)ccc2c1=O (mixture of isomers) [Example 606, N-[1,1,1,4,4,4-Hexafluorobutan-2-yl]-7-[(4S)-4-hydroxy-2-oxopyrrolidin-1-yl]-4-oxo-1-(2,4,6-trifluorophenyl)-1,4-dihydro-1,8-naphthyridine-3-carboxamide]",–
28,99,–,"CCC(COC(F)(F)F)NC(=O)c1cn(-c2c(F)cc(F)cc2F)c2nc(N3CCNC3=O)ccc2c1=O (racemic) [Example 609, 4-Oxo-7-(2-oxoimidazolidin-1-yl)-N-[1-(trifluoromethoxy)butan-2-yl]-1-(2,4,6-trifluorophenyl)-1,4-dihydro-1,8-naphthyridine-3-carboxamide]",–
11,–,100.0,"CCC(COC(F)(F)F)NC(=O)c1cn(-c2c(F)cc(F)cc2F)c2nc(N3CCNC3=O)ccc2c1=O (racemic) [Example 610, 4-Oxo-7-(2-oxoimidazolidin-1-yl)-N-[1-(trifluoromethoxy)butan-2-yl]-1-(2,4,6-trifluorophenyl)-1,4-dihydro-1,8-naphthyridine-3-carboxamide]",–
17,–,90.0,"CCC(COC(F)(F)F)NC(=O)c1cn(-c2c(F)cc(F)cc2F)c2nc(N3CCNC3=O)ccc2c1=O (racemic) [Example 611, 4-Oxo-7-(2-oxoimidazolidin-1-yl)-N-[1-(trifluoromethoxy)butan-2-yl]-1-(2,4,6-trifluorophenyl)-1,4-dihydro-1,8-naphthyridine-3-carboxamide]",–
40,88.6,–,"CC[C@H](NC(=O)c1cn(-c2c(F)cc(F)cc2F)c2nc(N3CC(O)C4(CC4)C3)ccc2c1=O)C(F)(F)F (mixture of isomers) [Example 619, 7-[7-Hydroxy-5-azaspiro[2.4]hept-5-yl]-4-oxo-N-[(2S)-1,1,1-trifluorobutan-2-yl]-1-(2,4,6-trifluorophenyl)-1,4-dihydro-1,8-naphthyridine-3-carboxamide]",–

Structure (SMILES),EC50 (M2-GIRK1/4 reporter cells) [nM],Emax [1] [%],Efficiency (M2-GIRK1/4 reporter cells) [%],Emax (read-out: Efficiency) [%]
"O=C(N[C@@H](C1CC1)C(F)(F)F)c1cn(-c2c(F)cc(F)cc2F)c2nc(N3CCC(O)C(O)C3)ccc2c1=O (mixture of isomers) [Example 615, N-[(1 S)-1-Cyclopropyl-2,2,2-trifluoroethyl]-7-[trans-3,4-dihydroxypiperidin-1-yl]-4-oxo-1-(2,4,6-trifluorophenyl)-1,4-dihydro-1,8-naphthyridine-3-carboxamide]",53,99.3,–,–
